For the experiment, the target named is T1, menin (Homo sapiens, UniProt O00255, T541A).
T1 construct: Menin (a.a. 1-610-6×his tag)
T1 sequence (O00255 with tags, fused parts or gaps T541A): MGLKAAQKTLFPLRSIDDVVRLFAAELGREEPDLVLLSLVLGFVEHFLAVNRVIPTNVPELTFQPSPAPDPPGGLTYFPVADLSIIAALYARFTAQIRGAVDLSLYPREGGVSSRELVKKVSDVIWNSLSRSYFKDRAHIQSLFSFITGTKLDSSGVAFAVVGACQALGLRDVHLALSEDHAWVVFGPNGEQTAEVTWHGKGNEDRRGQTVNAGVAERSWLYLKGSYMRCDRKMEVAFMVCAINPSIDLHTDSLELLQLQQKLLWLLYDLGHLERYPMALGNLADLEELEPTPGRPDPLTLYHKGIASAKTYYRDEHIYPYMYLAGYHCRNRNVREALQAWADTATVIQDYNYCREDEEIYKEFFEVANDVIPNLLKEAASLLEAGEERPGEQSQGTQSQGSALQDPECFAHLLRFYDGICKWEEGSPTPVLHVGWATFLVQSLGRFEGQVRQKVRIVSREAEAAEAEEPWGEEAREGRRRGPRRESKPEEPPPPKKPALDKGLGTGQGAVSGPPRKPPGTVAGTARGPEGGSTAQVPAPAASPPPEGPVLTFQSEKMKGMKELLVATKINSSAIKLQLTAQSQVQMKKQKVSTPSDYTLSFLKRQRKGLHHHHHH
Description: Menin/MLL homogenous time-resolved fluorescence (HTRF) assay. Format: binding. The following applies: location 2; read-out: (2) location 2 Menin HTRF assay (IC50 (nM)). The protocol:
2) Menin/MLL Homogenous Time-Resolved Fluorescence (HTRF) Assay
To an untreated, white 384-well microtiter plate was added 40 nL 200× test compound in DMSO and 4 μL 2× terbium chelate-labeled menin (vide infra for preparation) in assay buffer (40 mM Tris HCl, pH 7.5, 50 mM NaCl, 1 mM DTT and 0.05% Pluronic F-127). After incubation of test compound and terbium chelate-labeled menin for 5 min at ambient temperature, 4 μL 2× FITC-MBM1 peptide (FITC-β-alanine-[…]-NH2 (SEQ ID NO: 23)) in assay buffer was added, the microtiter plate centrifuged at 1000 rpm for 1 min and the assay mixtures incubated for 15 min at ambient temperature. The relative amount of menin.FITC-MBM1 complex present in an assay mixture is determined by measuring the homogenous time-resolved fluorescence (HTRF) of the terbium/FITC donor/acceptor fluorphore pair using a BMG Pherastar plate reader (ex. 337 nm/terbium em. 490 nm/FITC em. 520 nm) at ambient temperature. The degree of fluorescence resonance energy transfer (the HTRF value) is expressed as the ratio of the fluorescence emission intensities of the FITC and terbium fluorophores (Fern 520 nm/Fem 490 nm). The final concentrations of reagents in the binding assay are […] terbium chelate-labeled menin (location 2), 75 nM FITC-MBM1 peptide and 0.5% DMSO in assay buffer. Dose-response titrations of test compounds are conducted using an 11 point, three-fold serial dilution scheme, starting typically at 25 μM (location 1) or starting typically at 10 μM (location 2).
Compound potencies were determined by first calculating % inhibition at each compound concentration according to equation 1: % inhibition=((HC−LC)−(HTRF^compound−LC))/(HC−LC))*100 (Eqn 1)
Where LC and HC are the HTRF values of the assay in the presence or absence of a saturating concentration of a compound that competes with FITC-MBM1 for binding to menin, and HTRF^compound is the measured HTRF value in the presence of the test compound. FTC and LC HTRF values represent an average of at least 16 replicates per plate.
Where Bottom and Top are the lower and upper asymptotes of the dose-response curve, respectively, IC50 is the concentration of compound that yields 50% inhibition of signal and h is the Hill coefficient.
Preparation of Terbium cryptate labeling of Menin: Menin (a.a. 1-610-6×his tag (“6×his” disclosed as SEQ ID NO: 3)) was labeled with terbium cryptate as follows. 2 mg of Menin was buffer exchanged into 1× phosphate buffered saline. 16 uM Menin was incubated with 4-fold molar excess NHS-terbium cryptate (Cisbio Bioassays, Bedford, Mass.) for 2 hours at room temperature. The labeled protein was purified away from free label by running the reaction over a Superdex 200 Increase 10/300 GL column at 0.75 ml/min. Peak fractions were collected, aliquoted and frozen at −80° C.
A general note: In TR-FRET formats the signal depends on donor and acceptor labels being close together.

As to `CNC(=O)c1ccc(NC2CC3(CCN(c4ncnc5sc(CC(F)(F)F)cc45)C3)C2)cc1F` (single isomer, unassigned) [Compound 204], the IC50 (in general, the point on the concentration scale where inhibition reaches its midpoint) turned out to be 84.6 nM. For `N#CCc1ccc(NC2CC3(CCN(c4ncnc5sc(CC(F)(F)F)cc45)C3)C2)c(Cl)c1` (single isomer, unassigned) [Compound 209], the IC50 came out at 65.3 nM.

Consider `N#CCc1ccc(NC2CC3(CCN(c4ncnc5sc(CC(F)(F)F)cc45)C3)C2)cc1Cl` (single isomer, unassigned) [Compound 210], for which the IC50 came out at 70.4 nM. `O=S(=O)(c1ccc(NC2CC3(CCN(c4ncnc5sc(CC(F)(F)F)cc45)C3)C2)cc1)N1CCOCC1` (single isomer, unassigned) [Compound 220]: the IC50 is 118 nM. The value for `CNC(=O)c1ccc(NC2CC3(CCN(c4ncnc5sc(CC(F)(F)F)cc45)C3)C2)cc1C1CCN(C)CC1` (single isomer, unassigned) [Compound 231] was 208 nM. The same measure for `CN1CCC(c2cc(NC3CC4(CCN(c5ncnc6sc(CC(F)(F)F)cc56)C4)C3)ccc2C(=O)N2CCOCC2)CC1` (single isomer, unassigned) [Compound 233]: 108 nM. The same measure for `CNC(=O)c1c(F)cc(NC2CC3(CCN(c4ncnc5sc(CC(F)(F)F)cc45)C3)C2)cc1F` (single isomer, unassigned) [Compound 244]: 516 nM. `O=C(c1cnc(NC2CC3(CCN(c4ncnc5sc(CC(F)(F)F)cc45)C3)C2)nc1)N1CCOCC1` (single isomer, unassigned) [Compound 259]: the IC50 was over 10000 nM.

Take `Cc1nc(N2CCC3(CC(NCc4ccccc4)C3)C2)c2cc(CC(F)(F)F)sc2n1` (single isomer, unassigned) [Compound 261]: the IC50 came to 529 nM. With `COc1nc(N2CCC3(CC(Nc4ccccc4)C3)C2)c2cc(CC(F)(F)F)sc2n1` (single isomer, unassigned) [Compound 266], the half-inhibitory concentration (IC50) was 1020 nM. `CNc1nc(N2CCC3(CC(Nc4ccccc4)C3)C2)c2cc(CC(F)(F)F)sc2n1` (single isomer, unassigned) [Compound 268]: the IC50 is 943 nM. Consider `CC(C)(N[C@@H]1CCC2(C1)CN(c1ncnc3sc(CC(F)(F)F)cc13)C2)c1ccccc1` (single isomer, unassigned) [Compound 280], for which the IC50 worked out at 158 nM. The value for `CNS(=O)(=O)c1ccc(N[C@@H]2CCC3(C2)CN(c2ncnc4sc(CC(F)(F)F)cc24)C3)cc1` (single isomer, unassigned) [Compound 290] was 231 nM; that for `O=C1Cc2ccc(N[C@H]3CCC4(C3)CN(c3ncnc5sc(CC(F)(F)F)cc35)C4)cc2N1` (single isomer, unassigned) [Compound 294] was 58.4 nM. Consider `O=c1[nH]c2ccc(N[C@@H]3CCC4(C3)CN(c3ncnc5sc(CC(F)(F)F)cc35)C4)cc2o1` (single isomer, unassigned) [Compound 296], for which the IC50 turned out to be 146 nM. The same measure for `O=c1[nH]c2ccc(N[C@H]3CCC4(C3)CN(c3ncnc5sc(CC(F)(F)F)cc35)C4)cc2o1` (single isomer, unassigned) [Compound 297]: 131 nM.

Take `O=c1[nH]c2ccc(N[C@H]3CCC4(C3)CN(c3ncnc5sc(CC(F)(F)F)cc35)C4)cc2[nH]1` (single isomer, unassigned) [Compound 300]: the IC50 was 128 nM. As to `FC(F)(F)Cc1cc2c(N3CC4(CC[C@@H](Nc5ccc(-c6cn[nH]c6)cc5)C4)C3)ncnc2s1` (single isomer, unassigned) [Compound 303], the IC50 was determined as 521 nM.

`FC(F)(F)Cc1cc2c(N3CCC4(CC(Nc5ccc6cc[nH]c6c5)C4)C3)ncnc2s1` (single isomer, unassigned) [Compound 312]: the concentration for half-maximal inhibition (IC50) stood at 136 nM. Consider `FC(F)(F)Cc1cc2c(N3CCC4(CC(Nc5ccc6cc[nH]c6c5)C4)C3)ncnc2s1` (single isomer, unassigned) [Compound 313], for which the half-maximal inhibitory concentration (IC50) came out at 55.2 nM. Regarding `O=c1[nH]c2ccc(NC3CC4(CCN(c5ncnc6sc(CC(F)(F)F)cc56)C4)C3)cc2o1` (single isomer, unassigned) [Compound 324], the IC50 is 85.9 nM.

Consider `FC(F)(F)Cc1cc2c(N3CCC4(CC(Nc5ccc(-c6cn[nH]c6)cc5)C4)C3)ncnc2s1` (single isomer, unassigned) [Compound 328], for which the IC50 stood at 206 nM.

As to `CC(=O)Nc1ccc(NC2CC3(CCN(c4ncnc5sc(CC(F)(F)F)cc45)C3)C2)cc1` (single isomer, unassigned) [Compound 332], the IC50 came out at 330 nM. The value for `CN1CCN(C(=O)c2ccc(NC3CC4(CCN(c5ncnc6sc(CC(F)(F)F)cc56)C4)C3)cc2)CC1` (single isomer, unassigned) [Compound 337] was 2300 nM; that for `CN1CCN(C(=O)c2ccc(NC3CC4(CCN(c5ncnc6sc(CC(F)(F)F)cc56)C4)C3)cc2)CC1` (single isomer, unassigned) [Compound 338] was 89.5 nM. Regarding `Nc1nc(N2CCC3(CC(Nc4ccc5[nH]c(=O)[nH]c5c4)C3)C2)c2cc(CC(F)(F)F)sc2n1` (single isomer, unassigned) [Compound 383], the half-inhibitory concentration (IC50) was determined as 70.8 nM. As for `N#CCc1ccc(NC2CCC3(C2)CN(c2nc(N)nc4sc(CC(F)(F)F)cc24)C3)cc1` (single isomer, unassigned) [Compound 388], the IC50 amounted to 217 nM. `N#CCc1ccc(NC2CCC3(C2)CN(c2nc(N)nc4sc(CC(F)(F)F)cc24)C3)cc1` (single isomer, unassigned) [Compound 389]: the IC50 worked out at 96 nM.

For the compound `CNc1nc(N2CCC3(CC(Nc4ccc(CC#N)cc4)C3)C2)c2cc(CC(F)(F)F)sc2n1` (single isomer, unassigned) [Compound 391], the IC50 was found to be 163 nM. As to `CNc1nc(N2CCC3(CC(Nc4ccc(CC#N)cc4)C3)C2)c2cc(CC(F)(F)F)sc2n1` (single isomer, unassigned) [Compound 392], the IC50 is 16.8 nM. The value for `CNc1nc(N2CCC3(CC(Nc4ccc5[nH]c(=O)[nH]c5c4)C3)C2)c2cc(CC(F)(F)F)sc2n1` (single isomer, unassigned) [Compound 395] was 113 nM. The value for `COC[C@@H]1CN(C(=O)c2ccc(NC3CC4(CCN(c5ncnc6sc(CC(F)(F)F)cc56)C4)C3)cc2)CCO1` (single isomer, unassigned) [Compound 409] was 1100 nM. As to `O=C(c1ccc(NC2CC3(CCN(c4ncnc5sc(CC(F)(F)F)cc45)C3)C2)cc1)N1CC2(COC2)C1` (single isomer, unassigned) [Compound 414], the IC50 turned out to be 100 nM. As for `FC(F)(F)Cc1cc2c(N3CC4(CC[C@@H](NC5(c6ccccc6)CC5)C4)C3)ncnc2s1` (stereo in doubt) [Compound 112], the IC50 turned out to be 313 nM. Turning to `FC(F)(F)Cc1cc2c(N3CC4(CC[C@H](NC5(c6ccccc6)CC5)C4)C3)ncnc2s1` (stereo in doubt) [Compound 113], the IC50 is 164 nM. Take `COc1nc(N2CC3(CC[C@@H](NCc4cccc(-c5cc[nH]n5)c4)C3)C2)c2cc(CC(F)(F)F)sc2n1` (stereo in doubt) [Compound 115]: the IC50 turned out to be 160 nM. The value for `N#CCc1ccc(N[C@@H]2CC[C@]3(CCN(c4ncnc5sc(CC(F)(F)F)cc45)C3)C2)cc1` (stereo in doubt) [Compound 146] was 23.7 nM.

These data come from patent publication US11396517B1, “Exo-aza spiro inhibitors of menin-MLL interaction” (Janssen Pharmaceutica NV, priority 2017, dated 2022).
